Values belong to the compound of their own block, whether it stands above or below them.
Columns and labels:
[1] = test system: LPS-induced TNFα release from human monocytes; assay: LPS-stimulated TNFα release from human monocytes (ELISA); format: cell-based
Protocol: The influence of monocompounds and their various combinations, also in three-in-one on TNF secretion was investigated by using human monocytes. The study was approved by our institutional Ethics Committee according to the International Declarations of Helsinki and Tokyo.
Peripheral blood mononuclear cells (PBMCs) were isolated from heparinized blood samples of healthy donors by density gradient centrifugation. An equal volume of Hanks buffer (Invitrogen, Heidelberg, Germany) was added to heparinized whole blood samples. […] A visible band containing PBMCs was transferred to a fresh tube and washed twice with Hanks-buffer. […] 5% CO2 overnight. Monocytes were isolated from other cells by adherence method, non-adherent cells were removed by changing the medium.
Cells were re-suspended at 10^6 cells/ml and incubated in 500 μl volumes in 24-well tissue culture plates (Falcon Becton Dickinson Labware, Heidelberg, Germany) at 37° C., 5% CO2. After pre-incubation with test substances (0.5 μl/500 μl medium) for 30 min, cells were stimulated with lipopolysaccharide (LPS) (Sigma, Deisenhofen, Germany) (1 μg/ml). After 24 h of incubation, cells were sedimented by centrifugation. The supernatants were harvested and kept frozen at −80° C. until protein determination.
Cytokine measurements in culture supernatants were done by sandwich ELISA using matched antibody pairs (BD Pharmingen, Heidelberg, Germany). ELISA plates (Maxisorb, Nunc, Wiesbaden, Germany) were coated overnight with anti-cytokine monoclonal antibody (mAb) in 0.1M carbonate buffer, pH 9.5. After being washed, plates were blocked with Assay Diluent (BD Pharmingen, Heidelberg, Germany) for 1 h and washed again. Appropriately diluted supernatant samples and standards were distributed in duplicates and the plates were incubated for 2 h at room temperature. Plates were washed, incubated for 1 h with working detector (biotinylated anti-cytokine antibody and Avidin-horseradish peroxidase conjugate) (BD Pharmingen, Heidelberg, Germany). After washing, substrate (TMB and hydrogen peroxide) was added. The reaction was stopped by adding of 1M H3PO4. Plates were read at 450 nm (reference 570 nm) in a microplate reader (Dynatech, Alexandria, USA). The results were expressed as a percentage of the control level of cytokines production by cells stimulated in the absence of the compound.

M1-M3 receptors = conditions: cited from earlier work
M3 muscarinic receptors = M3 muscarinic receptors (Homo sapiens, UniProt P20309); conditions: kinetics studies; cited from earlier work
allergic conjunctivitis = conditions: rats, administered topically into the eyes; cited from earlier work
[2] = test system: allergen-induced airway eosinophilia; conditions: Brown Norway rats; administered directly into the lungs; cited from earlier work
[3] = mice; cited from earlier work
[4] = animal experiments; completely reversed by adding scopolamine; cited from earlier work
[5] = test system: collagen-induced arthritis; conditions: rats; cited from earlier work
[6] = dog, in vivo, 15 mg/kg; cited from earlier work

M3 muscarinic receptors, sequence (P20309 whole entry): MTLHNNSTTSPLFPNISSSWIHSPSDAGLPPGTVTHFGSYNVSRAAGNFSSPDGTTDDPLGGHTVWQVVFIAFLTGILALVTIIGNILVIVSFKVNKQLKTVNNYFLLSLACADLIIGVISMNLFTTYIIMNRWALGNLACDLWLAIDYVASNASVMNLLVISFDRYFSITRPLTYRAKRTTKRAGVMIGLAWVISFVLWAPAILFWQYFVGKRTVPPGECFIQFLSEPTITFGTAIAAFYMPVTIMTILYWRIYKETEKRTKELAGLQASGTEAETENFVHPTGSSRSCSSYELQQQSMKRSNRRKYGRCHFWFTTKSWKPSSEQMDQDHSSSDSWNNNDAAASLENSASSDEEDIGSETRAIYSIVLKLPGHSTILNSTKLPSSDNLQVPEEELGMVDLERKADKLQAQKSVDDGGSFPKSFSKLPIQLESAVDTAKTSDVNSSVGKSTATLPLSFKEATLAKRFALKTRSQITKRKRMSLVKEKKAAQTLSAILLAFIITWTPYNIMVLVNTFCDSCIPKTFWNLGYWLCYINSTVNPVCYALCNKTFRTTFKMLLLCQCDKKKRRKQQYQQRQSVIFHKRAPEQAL

Structure (SMILES): C[N+]1(C)CC[C@@H](OC(=O)[C@](O)(c2ccccc2)C2CCCC2)C1.[Br-] [R,R-glycopyrrolate]
influence of the single substance on LPS-induced TNFα release ([1]; human monocytes, LPS 1 μg/ml, 24 h, concentrations up to 10 μM): did not influence

Structure (SMILES): C[N+]1(C)CCC(OC(=O)C(O)(c2ccccc2)C2CCCC2)C1 (racemic) [glycopyrrolate, racemic glycopyrrolate]
selectivity in binding to the M1-M3 receptors (M1-M3 receptors): no selectivity
dissociation from M3 muscarinic receptors (M3 muscarinic receptors): dissociates slowly

Structure (SMILES): COc1cc(C(=O)NS(=O)(=O)c2ccccc2C)ccc1Cc1cn(C)c2ccc(NC(=O)OC3CCCC3)cc12 [Zafirlukast, zafirlukast]
development of symptoms and mediator release (allergic conjunctivitis): effectively inhibit

IC50 ([1]; Monocyte, human monocytes, LPS 1 μg/ml, 24 h, read-out: IC50 for inhibition of TNFα release): 0.55 ± 0.13 nM
Structure (SMILES): CCCC1O[C@@H]2C[C@H]3[C@@H]4CCC5=CC(=O)C=C[C@]5(C)[C@H]4[C@@H](O)C[C@]3(C)[C@]2(C(=O)CO)O1 (stereo partly shown) [budesonide]

Structure (SMILES): C[C@H]1C[C@H]2[C@@H]3CCC4=CC(=O)C=C[C@]4(C)[C@@]3(Cl)[C@@H](O)C[C@]2(C)[C@@]1(O)C(=O)CO [beclomethasone]
ID50 for suppression of allergen-induced airway eosinophilia [2]: 0.1 µg/kg

Structure (SMILES): COc1ccc(C2CNC(=O)C2)cc1OC1CCCC1 (stereo not shown) [rolipram]
IC35 for inhibition of TNFα release ([1]; IC35 determined instead of IC50 because maximum inhibition was around 70%): 68.9 ± 15.2 nM
maximum inhibition of TNFα release ([1]; human monocytes, LPS 1 μg/ml, 24 h): around 70%
physiological bone formation and bone mass [3]: enhance physiological bone formation and thereby increase bone mass
sedative effects (hypoactivity, decreased locomotion) [4]: induces sedative effects
clinical and histological severity of collagen-induced arthritis [5]: reduced the clinical and histological severity

Structure (SMILES): O=C(Nc1c(Cl)cncc1Cl)C(=O)c1cn(Cc2ccc(F)cc2)c2ccc(O)cc12 [AWD 12-281]
emesis [6]: no emesis could be induced
ID50 for suppression of allergen-induced airway eosinophilia [2]: 7 µg/kg
